From US11337983B2, “Dactinomycin compositions and methods for the treatment of acute myeloid leukemia” (priority 2015, dated 2022)
“Also recorded” adds a separate entry of the source. *1 amine or outer side, *2 acyl side, *3 side chain or, on linkers, in order; H or OH if unused. Where a SMILES comes first, the peptide text is derived from it. Bridges are numbered along the chain shown (N, C = ends). Roman numbers before positions name the chains, in order. [ ]: non-standard residue; d: D form. Actinocin(9to1) = Cc1c2oc3c(C)ccc(C(=O)[*:1])c3nc-2c(C(=O)[*:2])c(N)c1=O; NMeV = CN[CH](C(=O)O)C(C)C; Sar = CNCC(=O)O

Experiments:
Format in all cases: in vivo, human
[1] = test system: NPM1-mutated AML without FLT3 internal tandem duplication mutations; assay: Dactinomycin single-agent treatment of a patient with NPM1-mutated AML (response)
Procedure: (§1) A patient with NPM1-mutated AML without FLT3 internal tandem duplication mutations was treated with dactinomycin. Because dactinomycin lacks cardiotoxicity, a patient was selected for whom intensive chemotherapy was not appropriate owing to a low left ventricular ejection fraction (35%). […] Therefore, with the patient's consent, dactinomycin was administered as an off-label single agent (approved by the institutional review board at Perugia Hospital), at a dose of 12.5 μg per kilogram of body weight per day for 5 consecutive days, as recommended for low-risk gestational trophoblastic tumors. […] Four more cycles were administered for a total of six cycles, at intervals of 3 to 4 weeks.
The progressive decrease in NPM1 mutant transcripts (until the achievement of negativity for minimal residual disease) is reminiscent of dactinomycin-induced normalization of serum levels of human chorionic gonadotropin in patients with gestational trophoblastic tumors.

[2] = test system: refractory or relapsed NPM1-mutated AML; assay: Dactinomycin treatment of six additional patients with refractory or relapsed NPM1-mutated AML; conditions: 15.0 μg per kilogram per day for 5 consecutive days, cycles
Procedure: Six additional patients with refractory or relapsed NPM1-mutated AML were treated with cycles of dactinomycin at a dose of 15.0 μg per kilogram per day for 5 consecutive days.

[3] = Adverse events and hematologic toxic effects during dactinomycin treatment of the patient
Procedure: as §1
The number of days with a hemoglobin level of less than 8 g per deciliter, severe thrombocytopenia (a platelet count of <20,000 per cubic millimeter), and severe neutropenia (a neutrophil count of <500 per cubic millimeter) are reported for cycles 1 through 6. A total of 8 units of red cells and 4 units of platelets were transfused during cycle 1, and 4 units of red cells and 1 unit of platelets were transfused during cycle 2.

[4] = after two cycles of dactinomycin

Nc1ncn([C@@H]2O[C@H](CO)[C@@H](O)[C@H]2O)c(=O)n1 [azacitidine]
Course of leukemia after prior therapy ([1]; initial single cycle of azacitidine, before dactinomycin): Leukemia had progressed

Cc1c2oc3c(C)ccc(C(=O)NC4C(=O)NC(C(C)C)C(=O)N5CCCC5C(=O)N(C)CC(=O)N(C)C(C(C)C)C(=O)OC4C)c3nc-2c(C(=O)NC2C(=O)NC(C(C)C)C(=O)N3CCCC3C(=O)N(C)CC(=O)N(C)C(C(C)C)C(=O)OC2C)c(N)c1=O (stereo not shown) [dactinomycin, 2-amino-N,N′-bis(hexadecahydro-2,5,9-trimethyl-6,13-bis(1-methylethyl)-1,4,7,11,14-pentaoxo-1H-pyrrolo(2,1-I)(1,4,7,10,13)oxatetra-azacyclohexadecin-10-yl)-4,6-dimethyl-3-oxo-3H-phenoxazine-1,9-dicarboxamide] (I: TVP[Sar][NMeV] / II: TVP[Sar][NMeV]; ester I:1-I:C, II:1-II:C; linker I:N-II:N via Actinocin(9to1); configuration not given here)
Morphologic and immunohistochemical (hematologic) complete remission ([1]; 12.5 μg per kilogram per day for 5 consecutive days per cycle, patient): hematologic complete remission; also recorded: complete remission was achieved after two cycles of therapy | Immunostaining with anti-NPM1 monoclonal antibody of bone marrow cells [1, 4]: nucleus-restricted positivity for NPM1 | Leukemic blasts in bone marrow aspirate (MGG staining) [1, 4]: less than 5% | Molecular complete remission / negativity for minimal residual disease (quantitative RT-PCR for mutant copies of NPM1) ([1]; bone marrow samples, 12.5 μg/kg/day x 5 days per cycle): Negativity for minimal residual disease was achieved after the fourth cycle; also recorded: molecular complete remission after the fourth cycle | Mutant copies of NPM1 in bone marrow samples (RT-PCR, copies per 100 copies of Abl) ([1]; during dactinomycin treatment): progressive reduction in copies | Duration of morphologic and molecular complete remission ([1]; six cycles at intervals of 3 to 4 weeks): 14 months | Hematologic complete remission (patients of six treated) [2]: achieved in two patients | Need for red-cell or platelet transfusions ([3]; after cycle 2 (cycles 3 through 6)): no need for blood transfusions; also recorded: No red-cell or platelet transfusions were necessary | Number of days with Hb <8 g/dl ([3]; cycle 1): 3 days | Number of days with PLT <20000/mm^3 ([3]; cycle 1): 13 days | Number of days with PMN <500/mm^3 ([3]; cycle 1): 26 days | Platelets transfused ([3]; cycle 1): 4 units | Red cells transfused ([3]; cycle 1): 8 units | Number of days with Hb <8 g/dl ([3]; cycle 2): 3 days | Number of days with PLT <20000/mm^3 ([3]; cycle 2): 2 days | Number of days with PMN <500/mm^3 ([3]; cycle 2): 6 days | Platelets transfused ([3]; cycle 2): 1 unit | Red cells transfused ([3]; cycle 2): 4 units | Number of days with Hb <8 g/dl ([3]; cycle 3): 0 days | Number of days with PLT <20000/mm^3 ([3]; cycle 3): 0 days | Number of days with PMN <500/mm^3 ([3]; cycle 3): 4 days | Number of days with Hb <8 g/dl ([3]; cycle 4): 0 days | Number of days with PLT <20000/mm^3 ([3]; cycle 4): 0 days | Number of days with PMN <500/mm^3 ([3]; cycle 4): 4 days | Number of days with Hb <8 g/dl ([3]; cycle 5): 0 days | Number of days with PLT <20000/mm^3 ([3]; cycle 5): 0 days | Number of days with PMN <500/mm^3 ([3]; cycle 5): 4 days | Number of days with Hb <8 g/dl ([3]; cycle 6): 0 days | Number of days with PLT <20000/mm^3 ([3]; cycle 6): 0 days | Number of days with PMN <500/mm^3 ([3]; cycle 6): 3 days | Skin adverse event ([3]; during cycle 2): superficial skin erosions | Febrile neutropenia and thrombocytopenia (adverse event grade) ([3]; during cycles 1 and 2): 4 grade | Oral mucositis (adverse event grade) ([3]; during cycles 1 through 3): 2 grade
